Results: PubChem BioAssay AID1919008 (Molecular Pharmacology Branch, DTP, NCI, 2023)

System: DMS-114 complex spheroids with HUVEC/MSC, growth % test/control
Assay: Anticancer human tumor DMS-114 cell line growth inhibition [AhR];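 note: spheroids exposed to agents for 7 days before readout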;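 for viability, T/C: 100% = DMSO vehicle control wells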
Settings: for IC50: curve of first compound; for viability, T/C: stronger effect = lower value
Summary of the method: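 Agents were dosed in half-log steps down from roughly clinical Cmax, or from 10 microM where Cmax was unknown, alone and with AhR antagonists. Read-out: percent test/control growth of tumor spheroids containing HUVEC and MSC stromal cells.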

[1] = second compound 0.1 µM, first compound 0.0316 µM
[2] = second compound 0.1 µM, first compound 0.1 µM
[3] = second compound 0.1 µM, first compound 0.316 µM
[4] = second compound 0.1 µM, first compound 1 µM
[5] = second compound 0.1 µM, first compound 3.16 µM
[6] = second compound 0.1 µM, first compound 10 µM
[7] = second compound 0.316 µM, first compound 0.0316 µM
[8] = second compound 0.316 µM, first compound 0.1 µM
[9] = second compound 0.316 µM, first compound 0.316 µM
[10] = second compound 0.316 µM, first compound 1 µM
[11] = second compound 0.316 µM, first compound 3.16 µM
[12] = second compound 0.316 µM, first compound 10 µM
[13] = second compound 1 µM, first compound 0.0316 µM
[14] = second compound 1 µM, first compound 0.1 µM
[15] = second compound 1 µM, first compound 0.316 µM
[16] = second compound 1 µM, first compound 1 µM
[17] = second compound 1 µM, first compound 3.16 µM
[18] = second compound 1 µM, first compound 10 µM
[19] = second compound 3.16 µM, first compound 0.0316 µM
[20] = second compound 3.16 µM, first compound 0.1 µM
[21] = second compound 3.16 µM, first compound 0.316 µM
[22] = second compound 3.16 µM, first compound 1 µM
[23] = second compound 3.16 µM, first compound 3.16 µM
[24] = second compound 3.16 µM, first compound 10 µM
[25] = second compound 10 µM, first compound 0.0316 µM
[26] = second compound 10 µM, first compound 0.1 µM
[27] = second compound 10 µM, first compound 0.316 µM
[28] = second compound 10 µM, first compound 1 µM
[29] = second compound 10 µM, first compound 3.16 µM
[30] = second compound 10 µM, first compound 10 µM

Row | Structure (SMILES) | IC50 (second compound 0.1 µM) [µM] | IC50 (second compound 0.316 µM) [µM] | IC50 (second compound 1 µM) [µM] | IC50 (second compound 3.16 µM) [µM] | IC50 (second compound 10 µM) [µM] | viability, T/C [1] [%] | viability, T/C [2] [%] | viability, T/C [3] [%] | viability, T/C [4] [%] | viability, T/C [5] [%] | viability, T/C [6] [%] | viability, T/C [7] [%] | viability, T/C [8] [%] | viability, T/C [9] [%] | viability, T/C [10] [%] | viability, T/C [11] [%] | viability, T/C [12] [%] | viability, T/C [13] [%] | viability, T/C [14] [%] | viability, T/C [15] [%] | also measured
1 | Nc1ccccc1NC(=O)c1ccc(CNC(=O)OCc2cccnc2)cc1 + Cc1cncc(-c2nc(NCCc3c[nH]c4ccccc34)c3ncn(C(C)C)c3n2)c1 | 0.592 | 0.574 | 0.61 | 0.348 | < 0.0316 | 97.9 | 87.5 | 63.4 | 39.5 | 16.3 | 9.46 | 89.1 | 82.1 | 61.4 | 39.2 | 17.5 | 8.03 | 85.8 | 88.4 | 64.2 | viability, T/C [16]: 38.1%; viability, T/C [17]: 16.9%; viability, T/C [18]: 8.49%; viability, T/C [19]: 89.6%; viability, T/C [20]: 68.2%; viability, T/C [21]: 57%; viability, T/C [22]: 28.2%; viability, T/C [23]: 12.7%; viability, T/C [24]: 8.11%; viability, T/C [25]: 32%; viability, T/C [26]: 34.8%; viability, T/C [27]: 26.3%; viability, T/C [28]: 10.3%; viability, T/C [29]: 3.46%; viability, T/C [30]: 3.1%
2 | O=C(C=Cc1cccc(S(=O)(=O)Nc2ccccc2)c1)NO + Cc1cncc(-c2nc(NCCc3c[nH]c4ccccc34)c3ncn(C(C)C)c3n2)c1 | 0.451 | 0.402 | 0.429 | 0.355 | < 0.0316 | 100 | 91.9 | 59.5 | 27.5 | 11.7 | 9.54 | 84.3 | 77.7 | 55.4 | 28.3 | 10.2 | 9.73 | 90.1 | 80 | 59.2 | viability, T/C [16]: 26.9%; viability, T/C [17]: 10.7%; viability, T/C [18]: 9.6%; viability, T/C [19]: 78.8%; viability, T/C [20]: 75.5%; viability, T/C [21]: 52.8%; viability, T/C [22]: 21.3%; viability, T/C [23]: 8.43%; viability, T/C [24]: 7.76%; viability, T/C [25]: 46.9%; viability, T/C [26]: 34%; viability, T/C [27]: 20.1%; viability, T/C [28]: 9.92%; viability, T/C [29]: 4.09%; viability, T/C [30]: 4.15%
3 | O=C(c1cc(Cc2n[nH]c(=O)c3ccccc23)ccc1F)N1CCN(C(=O)C2CC2)CC1 + Cc1cncc(-c2nc(NCCc3c[nH]c4ccccc34)c3ncn(C(C)C)c3n2)c1 | 9.12 | 9.82 | > 10 | > 10 | < 0.0316 | 92.1 | 102 | 105 | 98.1 | 91.4 | 46.4 | 108 | 96 | 102 | 102 | 89.4 | 49.1 | 96.7 | 94.4 | 76.1 | viability, T/C [16]: 95.2%; viability, T/C [17]: 83.7%; viability, T/C [18]: 58.3%; viability, T/C [19]: 89.9%; viability, T/C [20]: 92.2%; viability, T/C [21]: 77.9%; viability, T/C [22]: 85%; viability, T/C [23]: 73.9%; viability, T/C [24]: 50.4%; viability, T/C [25]: 31.8%; viability, T/C [26]: 46.6%; viability, T/C [27]: 35.3%; viability, T/C [28]: 37%; viability, T/C [29]: 27.8%; viability, T/C [30]: 22.1%
